Source: PubChem BioAssay (NCI)
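Each compound was tested at five concentrations against cells in 96-well plates for 48 hours. TGI marks complete inhibition of growth.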

Assays:
Assay in all cases: inhibition of tumour cell growth, NCI panel, 48 h
HCT-116 colon = tested on: HCT-116 colon
HOP-92 NSCLC = tested on: HOP-92 NSCLC
PC-3 prostate = tested on: PC-3 prostate
NCI/ADR-RES ovarian = tested on: NCI/ADR-RES ovarian
U251 CNS = tested on: U251 CNS
RXF 393 renal = tested on: RXF 393 renal
HS 578T breast = tested on: HS 578T breast
HCC-2998 colon = tested on: HCC-2998 colon
ACHN renal = tested on: ACHN renal
HT29 colon = tested on: HT29 colon
TK-10 renal = tested on: TK-10 renal
SK-OV-3 ovarian = tested on: SK-OV-3 ovarian
UO-31 renal = tested on: UO-31 renal
KM12 colon = tested on: KM12 colon
COLO 205 colon = tested on: COLO 205 colon
NCI-H226 lung = tested on: NCI-H226 lung
CAKI-1 renal = tested on: CAKI-1 renal
SK-MEL-5 melanoma = tested on: SK-MEL-5 melanoma
NCI-H460 lung = tested on: NCI-H460 lung
T-47D breast = tested on: T-47D breast
MALME-3M melanoma = tested on: MALME-3M melanoma
786-0 renal = tested on: 786-0 renal
SR leukemia = tested on: SR leukemia
HCT-15 colon = tested on: HCT-15 colon
SK-MEL-28 melanoma = tested on: SK-MEL-28 melanoma
RPMI-8226 leukemia = tested on: RPMI-8226 leukemia
A498 renal = tested on: A498 renal
M14 melanoma = tested on: M14 melanoma
LOX IMVI melanoma = tested on: LOX IMVI melanoma
SF-295 CNS = tested on: SF-295 CNS
OVCAR-3 ovarian = tested on: OVCAR-3 ovarian
OVCAR-5 ovarian = tested on: OVCAR-5 ovarian
SNB-19 CNS = tested on: SNB-19 CNS
NCI-H23 lung = tested on: NCI-H23 lung
OVCAR-4 ovarian = tested on: OVCAR-4 ovarian
NCI-H522 lung = tested on: NCI-H522 lung
UACC-257 melanoma = tested on: UACC-257 melanoma
SK-MEL-2 melanoma = tested on: SK-MEL-2 melanoma
SF-268 CNS = tested on: SF-268 CNS
SN12C renal = tested on: SN12C renal
EKVX NSCLC = tested on: EKVX NSCLC
SNB-75 CNS = tested on: SNB-75 CNS
HOP-62 NSCLC = tested on: HOP-62 NSCLC
A549 NSCLC = tested on: A549 NSCLC
IGROV1 ovarian = tested on: IGROV1 ovarian
OVCAR-8 ovarian = tested on: OVCAR-8 ovarian
MDA-MB-435 = tested on: MDA-MB-435
MOLT-4 leukemia = tested on: MOLT-4 leukemia
CCRF-CEM leukemia = tested on: CCRF-CEM leukemia
K-562 leukemia = tested on: K-562 leukemia
BT-549 breast = tested on: BT-549 breast
UACC-62 melanoma = tested on: UACC-62 melanoma
MCF7 breast = tested on: MCF7 breast
DU-145 prostate = tested on: DU-145 prostate
MDA-N = tested on: MDA-N
SW-620 colon = tested on: SW-620 colon
MDA-MB-231 breast = tested on: MDA-MB-231 breast
HL-60(TB) leukemia = tested on: HL-60(TB) leukemia
SF-539 CNS = tested on: SF-539 CNS

In the case of `Cc1cccc2nc3cccc(C(=O)NCCC[N+](C)(CCCNC(=O)c4cccc5nc6cccc(C)c6nc45)Cc4ccc([N+](=O)[O-])n4C)c3nc12`, the TGI (HCT-116 colon) is reported as greater than 100 µM, the TGI (HOP-92 NSCLC) is reported as greater than 100 µM and the TGI (PC-3 prostate) is reported as greater than 100 µM. The TGI (NCI/ADR-RES ovarian) was greater than 100 µM, the TGI (U251 CNS) was greater than 100 µM and the TGI (RXF 393 renal) was greater than 100 µM. The TGI (HS 578T breast) was greater than 100 µM, the TGI (HCC-2998 colon) was greater than 100 µM and the TGI (ACHN renal) was greater than 100 µM. It also gave a TGI (HT29 colon) greater than 100 µM, a TGI (TK-10 renal) greater than 100 µM and a TGI (SK-OV-3 ovarian) greater than 100 µM. It also gave a TGI (UO-31 renal) greater than 100 µM, a TGI (KM12 colon) greater than 100 µM and a TGI (COLO 205 colon) greater than 100 µM. It also gave a TGI (NCI-H226 lung) greater than 100 µM, a TGI (CAKI-1 renal) greater than 100 µM and a TGI (SK-MEL-5 melanoma) greater than 100 µM. For the same compound, the TGI (NCI-H460 lung) was greater than 100 µM, the TGI (T-47D breast) was greater than 100 µM and the TGI (MALME-3M melanoma) was greater than 100 µM. It also gave a TGI (786-0 renal) greater than 100 µM, a TGI (SR leukemia) greater than 100 µM and a TGI (HCT-15 colon) greater than 100 µM. For the same compound, the TGI (SK-MEL-28 melanoma) was greater than 100 µM, the TGI (RPMI-8226 leukemia) was greater than 100 µM and the TGI (A498 renal) was greater than 100 µM. For the same compound, the TGI (M14 melanoma) was greater than 100 µM, the TGI (LOX IMVI melanoma) was greater than 100 µM and the TGI (SF-295 CNS) was greater than 100 µM. It also gave a TGI (OVCAR-3 ovarian) greater than 100 µM, a TGI (OVCAR-5 ovarian) greater than 100 µM and a TGI (SNB-19 CNS) greater than 100 µM. For the same compound, the TGI (NCI-H23 lung) was greater than 100 µM, the TGI (OVCAR-4 ovarian) was greater than 100 µM and the TGI (NCI-H522 lung) was greater than 100 µM. It also gave a TGI (UACC-257 melanoma) greater than 100 µM, a TGI (SK-MEL-2 melanoma) greater than 100 µM and a TGI (SF-268 CNS) greater than 100 µM. It also gave a TGI (SN12C renal) greater than 100 µM, a TGI (EKVX NSCLC) greater than 100 µM and a TGI (SNB-75 CNS) greater than 100 µM. For the same compound, the TGI (HOP-62 NSCLC) was greater than 100 µM, the TGI (A549 NSCLC) was greater than 100 µM and the TGI (IGROV1 ovarian) was greater than 100 µM. For the same compound, the TGI (OVCAR-8 ovarian) was greater than 100 µM, the TGI (MDA-MB-435) was greater than 100 µM and the TGI (MOLT-4 leukemia) was 26.2 µM. The TGI (CCRF-CEM leukemia) was greater than 26.9 µM, the TGI (K-562 leukemia) was greater than 100 µM and the TGI (BT-549 breast) was greater than 100 µM. It also gave a TGI (UACC-62 melanoma) greater than 100 µM, a TGI (MCF7 breast) greater than 100 µM and a TGI (DU-145 prostate) greater than 100 µM. It also gave a TGI (MDA-N) greater than 100 µM, a TGI (SW-620 colon) greater than 100 µM and a TGI (MDA-MB-231 breast) greater than 100 µM.

For `COc1ccc(-c2cc(=O)c3c(O)cc(O)cc3o2)cc1OC`, the TGI (HCT-116 colon) was greater than 100 µM, the TGI (HOP-92 NSCLC) was 16.4 µM and the TGI (PC-3 prostate) was greater than 100 µM. The TGI (NCI/ADR-RES ovarian) was greater than 100 µM, the TGI (U251 CNS) was greater than 100 µM and the TGI (RXF 393 renal) was greater than 100 µM. For the same compound, the TGI (HS 578T breast) was greater than 100 µM, the TGI (HCC-2998 colon) was greater than 100 µM and the TGI (ACHN renal) was greater than 100 µM. For the same compound, the TGI (HT29 colon) was greater than 100 µM, the TGI (TK-10 renal) was greater than 100 µM and the TGI (SK-OV-3 ovarian) was greater than 100 µM. The TGI (UO-31 renal) was greater than 100 µM, the TGI (KM12 colon) was greater than 100 µM and the TGI (COLO 205 colon) was greater than 100 µM. For the same compound, the TGI (NCI-H226 lung) was greater than 100 µM, the TGI (SK-MEL-5 melanoma) was greater than 100 µM and the TGI (NCI-H460 lung) was greater than 100 µM. For the same compound, the TGI (T-47D breast) was greater than 100 µM, the TGI (MALME-3M melanoma) was greater than 100 µM and the TGI (786-0 renal) was greater than 100 µM. It also gave a TGI (SR leukemia) of 33.5 µM, a TGI (HCT-15 colon) greater than 100 µM and a TGI (SK-MEL-28 melanoma) greater than 100 µM. It also gave a TGI (RPMI-8226 leukemia) greater than 100 µM, a TGI (A498 renal) of 45.2 µM and a TGI (M14 melanoma) greater than 100 µM. For the same compound, the TGI (LOX IMVI melanoma) was greater than 100 µM, the TGI (HL-60(TB) leukemia) was greater than 100 µM and the TGI (SF-295 CNS) was greater than 100 µM. It also gave a TGI (OVCAR-3 ovarian) greater than 100 µM, a TGI (OVCAR-5 ovarian) greater than 100 µM and a TGI (SNB-19 CNS) greater than 100 µM. The TGI (NCI-H23 lung) was greater than 100 µM, the TGI (OVCAR-4 ovarian) was greater than 100 µM and the TGI (NCI-H522 lung) was 59.1 µM. For the same compound, the TGI (UACC-257 melanoma) was greater than 100 µM, the TGI (SK-MEL-2 melanoma) was greater than 100 µM and the TGI (SF-268 CNS) was greater than 100 µM. For the same compound, the TGI (SN12C renal) was greater than 100 µM, the TGI (EKVX NSCLC) was greater than 100 µM and the TGI (SNB-75 CNS) was 37.1 µM. It also gave a TGI (HOP-62 NSCLC) greater than 100 µM, a TGI (A549 NSCLC) greater than 100 µM and a TGI (IGROV1 ovarian) greater than 100 µM. It also gave a TGI (MDA-MB-435) greater than 100 µM, a TGI (SF-539 CNS) greater than 100 µM and a TGI (MOLT-4 leukemia) greater than 100 µM. For the same compound, the TGI (CCRF-CEM leukemia) was greater than 100 µM, the TGI (K-562 leukemia) was greater than 100 µM and the TGI (BT-549 breast) was greater than 100 µM. For the same compound, the TGI (UACC-62 melanoma) was greater than 100 µM, the TGI (MCF7 breast) was greater than 100 µM and the TGI (DU-145 prostate) was greater than 100 µM. The TGI (MDA-N) was greater than 100 µM, the TGI (SW-620 colon) was greater than 100 µM and the TGI (MDA-MB-231 breast) was greater than 100 µM.
